Results as given in patent publication US7517884B2 (Kalypsys Inc., priority 1998, dated 2009).

Key:
Format in all cases: cell-based, murine and human
Conditions in all cases: GAL4-PPAR LBD chimera
PPAR-delta = biological target: T1, PPAR-delta (UniProt Q03181); assay: PPAR-delta transactivation assay (GAL4 chimera, luciferase reporter) in CV-1 cells
T1 sequence (Q03181 1-441): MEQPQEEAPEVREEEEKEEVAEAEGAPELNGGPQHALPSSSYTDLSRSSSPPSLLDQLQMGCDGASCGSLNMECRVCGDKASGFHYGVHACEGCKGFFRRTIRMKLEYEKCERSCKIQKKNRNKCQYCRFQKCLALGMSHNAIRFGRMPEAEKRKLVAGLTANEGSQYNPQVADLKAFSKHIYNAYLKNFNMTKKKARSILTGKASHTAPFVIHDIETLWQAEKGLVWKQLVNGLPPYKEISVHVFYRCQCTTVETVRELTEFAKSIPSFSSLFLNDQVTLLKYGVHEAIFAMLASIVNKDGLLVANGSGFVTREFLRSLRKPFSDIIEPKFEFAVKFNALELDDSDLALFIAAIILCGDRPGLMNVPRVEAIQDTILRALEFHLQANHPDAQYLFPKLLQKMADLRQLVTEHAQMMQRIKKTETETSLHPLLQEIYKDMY
Procedure, shortened: (§1)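 CV-1 cells transiently transfected with murine or human PPAR-alpha, -gamma or -delta ligand-binding domain fused to GAL4 DNA-binding domain plus a GAL4-site luciferase reporter. After replating in phenol-red-free DME with 5% delipidated calf serum, cells were exposed to compound 20-24 h; luciferase read-out gave EC50.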

PPAR-gamma = biological target: T2, PPAR-gamma (UniProt P37231); assay: PPAR-gamma transactivation assay (GAL4 chimera, luciferase reporter) in CV-1 cells
T2 sequence (P37231 1-505): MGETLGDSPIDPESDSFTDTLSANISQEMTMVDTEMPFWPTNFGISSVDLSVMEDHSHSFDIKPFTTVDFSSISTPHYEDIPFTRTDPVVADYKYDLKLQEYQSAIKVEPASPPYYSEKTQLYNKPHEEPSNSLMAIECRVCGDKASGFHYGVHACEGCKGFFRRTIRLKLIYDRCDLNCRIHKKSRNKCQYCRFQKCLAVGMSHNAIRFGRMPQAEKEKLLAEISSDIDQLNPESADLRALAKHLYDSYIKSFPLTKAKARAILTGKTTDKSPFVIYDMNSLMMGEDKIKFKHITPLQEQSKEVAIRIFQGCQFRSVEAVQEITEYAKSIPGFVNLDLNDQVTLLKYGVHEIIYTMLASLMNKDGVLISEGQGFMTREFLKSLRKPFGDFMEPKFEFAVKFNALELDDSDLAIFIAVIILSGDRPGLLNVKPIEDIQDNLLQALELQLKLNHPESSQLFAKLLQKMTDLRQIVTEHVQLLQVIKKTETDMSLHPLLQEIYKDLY
Procedure, shortened: as §1

PPAR-alpha = biological target: T3, PPAR-alpha (UniProt Q07869); assay: PPAR-alpha transactivation assay (GAL4 chimera, luciferase reporter) in CV-1 cells
T3 sequence (Q07869 1-468): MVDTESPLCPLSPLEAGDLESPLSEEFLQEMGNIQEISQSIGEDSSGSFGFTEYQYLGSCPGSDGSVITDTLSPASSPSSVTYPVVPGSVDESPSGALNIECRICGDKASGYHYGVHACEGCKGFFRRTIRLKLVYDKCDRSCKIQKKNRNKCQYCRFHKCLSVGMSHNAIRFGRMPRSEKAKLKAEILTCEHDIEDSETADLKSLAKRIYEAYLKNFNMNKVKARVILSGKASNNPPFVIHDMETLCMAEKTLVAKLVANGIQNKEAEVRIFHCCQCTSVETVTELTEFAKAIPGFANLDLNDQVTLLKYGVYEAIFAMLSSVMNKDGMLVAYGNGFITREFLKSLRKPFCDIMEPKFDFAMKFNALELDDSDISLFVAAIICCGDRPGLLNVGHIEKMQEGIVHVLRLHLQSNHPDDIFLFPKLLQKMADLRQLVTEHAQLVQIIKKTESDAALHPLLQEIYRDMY
Procedure, shortened: as §1

Compound	EC50 (PPAR-delta) [µM]	EC50 (PPAR-gamma) [µM]	EC50 (PPAR-alpha) [µM]
O=C(O)Cc1csc2ccc(S(=O)(=O)N3CCN(c4ccc(C(F)(F)F)cc4F)CC3)cc12 [Example 47, {5-[4-(2-fluoro-4-trifluoromethyl-phenyl)-piperazine-1-sulfonyl]-benzo[b]thiophen-3-yl}-acetic acid]	< 5	< 5	< 5
O=C(O)Cc1csc2ccc(S(=O)(=O)N3CCN(c4ccc(C(F)(F)F)c(F)c4)CC3)cc12 [Example 48, {5-[4-(3-fluoro-4-trifluoromethyl-phenyl)-piperazine-1-sulfonyl]-benzo[b]thiophen-3-yl}-acetic acid]	< 5	< 5	< 5
C[C@@H]1CN(c2ccc(Cl)c(Cl)c2)C[C@H](C)N1S(=O)(=O)c1ccc2c(c1)C(C(=O)O)CC2 (stereo partly drawn) [Example 49, 6-[4-(3,4-dichloro-phenyl)-2,6-cis-dimethyl-piperazine-1-sulfonyl]-indan-1-carboxylic acid]	< 5	5 to 100	< 5
C[C@@H]1CN(c2ccc(C(F)(F)F)c(Cl)c2)C[C@H](C)N1S(=O)(=O)c1ccc2c(c1)C(C(=O)O)CC2 (stereo partly drawn) [Example 50, 6-[4-(3-Chloro-4-trifluoromethyl-phenyl)-cis-2,6-dimethyl-piperazine-1-sulfonyl]-indan-1-carboxylic acid]	< 5	5 to 100	5 to 100
C[C@@H]1CN(c2ccc(OC(F)(F)F)cc2)C[C@H](C)N1S(=O)(=O)c1ccc2c(c1)C(C(=O)O)CC2 (stereo partly drawn) [Example 51, 6-[2,6-cis-dimethyl-4-(4-trifluoromethoxy-phenyl)-piperazine-1-sulfonyl]-indan-1-carboxylic acid]	< 5	5 to 100	< 5
C[C@H]1CN(S(=O)(=O)c2ccc3c(c2)C(C(=O)O)CC3)CCN1c1ccc(Cl)c(Cl)c1 (stereo partly drawn) [Example 52, 6-[4-(3,4-dichloro-phenyl)-3-(S)-methyl-piperazine-1-sulfonyl]-indan-1-carboxylic acid]	< 5	< 5	< 5
C[C@H]1CN(S(=O)(=O)c2ccc3c(c2)C(C(=O)O)CC3)CCN1c1ccc(OC(F)(F)F)cc1 (stereo partly drawn) [Example 53, 6-[3-(S)-methyl-4-(4-trifluoromethoxy-phenyl)-piperazine-1-sulfonyl]-indan-1-carboxylic acid]	< 5	< 5	< 5
C[C@H]1CN(S(=O)(=O)c2ccc3c(c2)C(C(=O)O)CC3)CCN1c1ccc(C(F)(F)F)c(F)c1 (stereo partly drawn) [Example 54, 6-[4-(3-Fluoro-4-trifluoromethyl-phenyl)-3-(S)-Methyl-piperazine-1-sulfonyl]-indan-1-carboxylic acid]	< 5	< 5	< 5
C[C@H]1CN(S(=O)(=O)c2ccc3c(c2)C(C(=O)O)CC3)CCN1c1ccc(C(F)(F)F)cn1 (stereo partly drawn) [Example 55]	< 5	< 5	< 5
CCC1CN(c2ccc(C(F)(F)F)c(Cl)c2)CCN1S(=O)(=O)c1ccc2c(c1)C(C(=O)O)CC2 (stereo not drawn) [Example 56, 6-[4-(3-chloro-4-trifluoromethyl-phenyl)-2-ethyl-piperazine-1-sulfonyl]-indan-1carboxylic acid]	< 5	< 5	< 5
CCC1CN(c2ccc(OC(F)(F)F)cc2)CCN1S(=O)(=O)c1ccc2c(c1)C(C(=O)O)CC2 (stereo not drawn) [Example 57, 6-[2-ethyl-4-(4-trifluoromethoxy-phenyl)-piperazine-1-sulfonyl]-indan-1-carboxylic acid]	< 5	< 5	< 5
CCC1CN(c2ccc(Cl)c(Cl)c2)CCN1S(=O)(=O)c1ccc2c(c1)C(C(=O)O)CC2 (stereo not drawn) [Example 58, 6-[4-(3,4-Dichloro-phenyl)-2-ethyl-piperazine-1-sulfonyl]-indan-1-carboxylic acid]	< 5	5 to 100	< 5
CCC1CN(c2ccc(C(F)(F)F)c(F)c2)CCN1S(=O)(=O)c1ccc2c(c1)C(C(=O)O)CC2 (stereo not drawn) [Example 59, 6-[2-Ethyl-4-(3-fluoro-4-trifluoromethyl-phenyl)-piperazine-1-sulfonyl]-indan-1-carboxylic acid]	< 5	5 to 100	< 5
CCC1CN(c2ccc(C(F)(F)F)cc2F)CCN1S(=O)(=O)c1ccc2c(c1)C(C(=O)O)CC2 (stereo not drawn) [Example 60, 6-[2-Ethyl-4-(2-fluoro-4-trifluoromethyl-phenyl)-piperazine-1-sulfonyl]-indan-1-carboxylic acid]	< 5	5 to 100	< 5
C[C@H]1CN(c2ccc(Cl)c(Cl)c2)CCN1S(=O)(=O)c1ccc2c(c1)C(C(=O)O)CC2 (stereo partly drawn) [Example 61, 6-[4-(3,4-Dichloro-phenyl)-(S)-methyl-piperazine-1-sulfonyl]-indan-1-carboxylic acid]	< 5	< 5	< 5

Now from value to molecule:

EC50 (PPAR-delta) [µM]	EC50 (PPAR-gamma) [µM]	EC50 (PPAR-alpha) [µM]	Compound
< 5	5 to 100	< 5	C[C@H]1CN(c2ccc(OC(F)(F)F)cc2)CCN1S(=O)(=O)c1ccc2c(c1)C(C(=O)O)CC2 (stereo partly drawn) [Example 62, 6-[2-(S)-Methyl-4-(4-trifluoromethoxy-phenyl)-piperazine-1-sulfonyl]-indan-1-carboxylic acid]
< 5	< 5	< 5	C[C@H]1CN(c2ccc(C(F)(F)F)c(F)c2)CCN1S(=O)(=O)c1ccc2c(c1)C(C(=O)O)CC2 (stereo partly drawn) [Example 63, 6-[4-(3-Fluoro-4-trifluoromethyl-phenyl)-2-(S)-methyl-piperazine-1-sulfonyl]-indan-1-carboxylic acid]
< 5	< 5	< 5	CCC1CN(S(=O)(=O)c2ccc3c(c2)C(C(=O)O)CC3)CCN1c1ccc(C(F)(F)F)cn1 (stereo not drawn) [Example 64, 6-[3-Ethyl-4-(5-trifluoromethyl-pyrdin-2-yl)-piperazine-1-sulfonyl]-indan-1-carboxylic acid]
< 5	< 5	< 5	C[C@@H]1CN(S(=O)(=O)c2ccc3c(c2)C(C(=O)O)CC3)C[C@H](C)N1c1ccc(C(F)(F)F)cn1 (stereo partly drawn) [Example 65, 6-[cis-3,5-dimethyl-4-(5-trifluoromethyl-pyrdin-2-yl)-piperazine-1-sulfonyl]-indan-1-carboxylic acid]
< 5	5 to 100	< 5	O=C(O)C1CCc2ccc(S(=O)(=O)N3CC=C(c4ccc(C(F)(F)F)cn4)CC3)cc21 (stereo not drawn) [Example 66, 6-(5-Trifluoromethyl-3,6-dihydro-2H-|2,4|bipyridinyl-1-sulfonyl)-indan-1-carboxylic acid]
< 5	< 5	< 5	O=C(O)C1CCc2ccc(S(=O)(=O)N3CCCN(c4ccc(C(F)(F)F)cn4)CC3)cc21 (stereo not drawn) [Example 67, 6-[4-(5-trifluoromethyl-pyridin-2-yl)-[1,4]diazepane-1-sulfonyl]-indan-1-carboxylic acid]
< 5	< 5	< 5	C[C@H]1CN(c2ccc(C(F)(F)F)cn2)C[C@H](C)N1S(=O)(=O)c1ccc2c(c1)C(C(=O)O)CC2 (stereo partly drawn) [Example 68, 6-[trans-2,6-(S,S)-dimethyl-4-(5-trifluoromethyl-pyrdin-2-yl)-piperazine-1-sulfonyl]-indan-1-carboxylic acid]
< 5	< 5	< 5	C[C@H]1CN(S(=O)(=O)c2ccc3c(c2)C(C(=O)O)CC3)C[C@H](C)N1c1ccc(C(F)(F)F)cn1 (stereo partly drawn) [Example 69, 6-[trans-3,5-(S,S)-dimethyl-4-(5-trifluoromethyl-pyrdin-2-yl)-piperazine-1-sulfonyl]-indan-1-carboxylic acid]
